SMILES strings stand for the structures. Where two headings read alike, the source gives them in different places.

The values that follow come from patent US11254690B2, “PTEFb inhibiting macrocyclic compounds” (BAYER AKTIENGESELLSCHAFT, priority 2017, dated 2022).

One test deals with A2780 cells. Briefly: Proliferation assay, A2780. The test is classed as cell-based, human. Particulars: 72-hour exposure, Cell Titre-Glo, read-out: Inhibition of A2780 cell proliferation IC50. As for the experimental part:
Cultivated tumour cells (HeLa, human cervical tumour cells, ATCC CCL-2; NCI-H460, human non-small cell lung carcinoma cells, ATCC HTB-177; DU 145, hormone-independent human prostate carcinoma cells, ATCC HTB-81; HeLa-MaTu-ADR, multidrug-resistant human cervical carcinoma cells, EPO-GmbH Berlin; Caco-2, human colorectal carcinoma cells, ATCC HTB-37; B16F10, mouse melanoma cells, ATCC CRL-6475) were plated at a density of 5,000 cells/well (DU145, HeLa-MaTu-ADR), 3,000 cells/well (NCI-H460, HeLa), 1,500 cells/well (Caco-2), or 1,000 cells/well (B16F10) in a 96-well multititer plate in 200 μL of their respective growth medium supplemented 10% fetal calf serum. After 24 hours, the cells of one plate (zero-point plate) were stained with crystal violet (see below), while the medium of the other plates was supplemented with the test substances in various concentrations (0 μM, as well as in the range of 0.0001-10 μM; the final concentration of the solvent dimethyl sulfoxide was adjusted to 0.1%) using a Hewlett-Packard HP D300 Digital Dispenser. The cells were incubated for 4 days in the presence of test substances. Cell proliferation was determined by staining the cells with crystal violet: the cells were fixed by adding 20 μl/measuring point of an 11% glutaric aldehyde solution for 15 minutes at room temperature. After three washing cycles of the fixed cells with water, the plates were dried at room temperature. The cells were stained by adding 100 μl/measuring point of a 0.1% crystal violet solution (pH 3.0). After three washing cycles of the stained cells with water, the plates were dried at room temperature. The dye was dissolved by adding 100 μl/measuring point of a 10% acetic acid solution. The extinction was determined by photometry at a wavelength of 595 nm. The change of cell number, in percent, was calculated by normalization of the measured values to the extinction values of the zero-point plate (=0%) and the extinction of the untreated ([…]) cells (=100%). The IC50 values (inhibitory concentration at 50% of maximal effect) were determined by means of a 4 parameter fit. A2780 human ovarian carcinoma cells (ECACC #93112519) and non-adherent MOLM-13 human acute myeloid leukemia cells (DSMZ ACC 554) were seeded at a density of 3,000 cell/well (A2780) or 5,000 cells/well (MOLM-13) in a 96-well multititer plate in 150 μL of growth medium supplemented 10% fetal calf serum. After 24 hours, cell viability of one plate (zero-point plate) was determined with the Cell Titre-Glo Luminescent Cell Viability Assay (Promega), while the medium of the other plates was supplemented with the test substances in various concentrations (0 μM, as well as in the range of 0.0001-10 μM; the final concentration of the solvent dimethyl sulfoxide was adjusted to 0.1%) using a Hewlett-Packard HP D300 Digital Dispenser. Cell viability was assessed after 72-hour exposure with the Cell Titre-Glo Luminescent Cell Viability Assay (Promega). IC50 values (inhibitory concentration at 50% of maximal effect) were determined by means of a 4 parameter fit on measurement data which were normalized to vehicle (DMSO) treated cells (=100%) and measurement readings taken immediately before compound exposure (=0%).

For a further test, the target named is T1, CDK2/CycE (Homo sapiens, UniProt P24941).
T1 construct: GST; purchased ProQinase GmbH (Freiburg, Germany); host or cells: insect cells (Sf9)
Briefly: CDK2/CycE high ATP kinase assay (TR-FRET, 2 mM ATP). The test is classed as biochemical. Particulars: Method 2b. As for the experimental part:
2b. CDK2/CycE High ATP Kinase Assay
CDK2/CycE-inhibitory activity of compounds of the present invention at 2 mM adenosine-tri-phosphate (ATP) was quantified employing the CDK2/CycE TR-FRET (TR-FRET=Time Resolved Fluorescence Energy Transfer) assay as described in the following paragraphs.
Recombinant fusion proteins of GST and human CDK2 and of GST and human CycE, expressed in insect cells (Sf9) and purified by Glutathion-Sepharose affinity chromatography, were purchase from ProQinase GmbH (Freiburg, Germany). As substrate for the kinase reaction biotinylated peptide biotin-Ttds-YISPLKSPYKISEG (C-terminus in amid form) was used which can be purchased e.g. form the company JERINI peptide technologies (Berlin, Germany).
(§1) For the assay 50 nl of a 100 fold concentrated solution of the test compound in DMSO was pipetted into either a black low volume 384 well microtiter plate or a black 1536 well microtiter plate (both Greiner Bio-One, Frickenhausen, Germany), 2 μl of a solution of CDK2/CycE in aqueous assay buffer [50 mM Tris/HCl pH 8.0, 10 mM MgCl2, 1.0 mM dithiothreitol, 0.1 mM sodium ortho-vanadate, 0.01% (v/v) Nonidet-P40 (Sigma)] were added and the mixture was incubated for 15 min at 22° C. to allow pre-binding of the test compounds to the enzyme before the start of the kinase reaction. […] The concentration of CDK2/CycE was adjusted depending of the activity of the enzyme lot and was chosen appropriate to have the assay in the linear range, typical concentrations were about 10 ng/ml. The reaction was stopped by the addition of 3 μl of a solution of TR-FRET detection reagents (0.333 μM streptavidine-XL665 [Cisbio Bioassays, Codolet, France] and 1.67 nM anti-RB(pSer807/pSer811)-antibody from BD Pharmingen [#558389] and 2 nM LANCE EU-W1024 labeled anti-mouse IgG antibody [Perkin-Elmer, product no. AD0077, as an alternative a Terbium-cryptate-labeled anti-mouse IgG antibody from Cisbio Bioassays can be used]) in an aqueous EDTA-solution (167 mM EDTA, 0.2% (w/v) bovine serum albumin in 100 mM HEPES pH 7.5).
(§2) The resulting mixture was incubated 1 h at 22° C. to allow the formation of complex between the phosphorylated biotinylated peptide and the detection reagents. Subsequently the amount of phosphorylated substrate was evaluated by measurement of the resonance energy transfer from the Eu-chelate to the streptavidine-XL. Therefore, the fluorescence emissions at 620 nm and 665 nm after excitation at 350 nm was measured in a TR-FRET reader, e.g. a Pherastar (BMG Labtechnologies, Offenburg, Germany) or a Viewlux (Perkin-Elmer). The ratio of the emissions at 665 nm and at […] was taken as the measure for the amount of phosphorylated substrate. The data were normalised (enzyme reaction without inhibitor=0% inhibition, all other assay components but no enzyme=100% inhibition).

The next test has as its target T2, CDK9/CycT1 (Homo sapiens, UniProt P50750).
T2 construct: Recombinant full-length His-tagged human CDK9 and CycT1; His; purchased Life Technologies PV4131; host or cells: insect cells
Kind of test: CDK9/CycT1 high ATP kinase assay (TR-FRET, 2 mM ATP). The test is classed as biochemical. Particulars: for IC50: 2 mM ATP, Method 1b, lower limit for IC50s about 1-2 nM; for Selectivity high ATP CDK9 over high ATP CDK2: IC50 (high ATP CDK2)/IC50 (high ATP CDK9): ratio from Methods 1b and 2b, minimal values for IC50s near the assay limit. How it is done:
1b. CDK9/CycT1 High ATP Kinase Assay
CDK9/CycT1-inhibitory activity of compounds of the present invention at a high ATP concentration after preincubation of enzyme and test compounds was quantified employing the CDK9/CycT1 TR-FRET assay as described in the following paragraphs.
Recombinant full-length His-tagged human CDK9 and CycT1, expressed in insect cells and purified by Ni-NTA affinity chromatography, were purchased from Life Technologies (Cat. No PV4131). As substrate for the kinase reaction biotinylated peptide biotin-Ttds-YISPLKSPYKISEG (C-terminus in amide form) was used which can be purchased e.g. form the company JERINI peptide technologies (Berlin, Germany).
as §1, with “CDK9/CycT1” for “CDK2/CycE”, “in the range of 0.5 μg/ml.” for “about 10 ng/ml.”, “(0.33” for “(0.333”, “AD0077])” for “AD0077, as an alternative a Terbium-cryptate-labeled anti-mouse IgG antibody from Cisbio Bioassays can be used])”
as §2
(In general: In TR-FRET formats the signal depends on donor and acceptor labels being close together.)

T2 sequence (P50750 whole entry): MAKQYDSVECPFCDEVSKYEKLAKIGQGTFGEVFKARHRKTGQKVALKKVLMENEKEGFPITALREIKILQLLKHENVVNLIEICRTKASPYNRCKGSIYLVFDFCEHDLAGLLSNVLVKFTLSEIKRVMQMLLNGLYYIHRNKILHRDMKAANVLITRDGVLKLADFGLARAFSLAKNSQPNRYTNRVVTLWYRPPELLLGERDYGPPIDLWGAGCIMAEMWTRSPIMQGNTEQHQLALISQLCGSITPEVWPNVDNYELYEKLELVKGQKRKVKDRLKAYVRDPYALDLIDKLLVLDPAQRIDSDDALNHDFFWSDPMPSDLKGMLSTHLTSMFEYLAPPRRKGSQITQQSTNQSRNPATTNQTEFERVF
T2 sequence (O60563 whole entry partner): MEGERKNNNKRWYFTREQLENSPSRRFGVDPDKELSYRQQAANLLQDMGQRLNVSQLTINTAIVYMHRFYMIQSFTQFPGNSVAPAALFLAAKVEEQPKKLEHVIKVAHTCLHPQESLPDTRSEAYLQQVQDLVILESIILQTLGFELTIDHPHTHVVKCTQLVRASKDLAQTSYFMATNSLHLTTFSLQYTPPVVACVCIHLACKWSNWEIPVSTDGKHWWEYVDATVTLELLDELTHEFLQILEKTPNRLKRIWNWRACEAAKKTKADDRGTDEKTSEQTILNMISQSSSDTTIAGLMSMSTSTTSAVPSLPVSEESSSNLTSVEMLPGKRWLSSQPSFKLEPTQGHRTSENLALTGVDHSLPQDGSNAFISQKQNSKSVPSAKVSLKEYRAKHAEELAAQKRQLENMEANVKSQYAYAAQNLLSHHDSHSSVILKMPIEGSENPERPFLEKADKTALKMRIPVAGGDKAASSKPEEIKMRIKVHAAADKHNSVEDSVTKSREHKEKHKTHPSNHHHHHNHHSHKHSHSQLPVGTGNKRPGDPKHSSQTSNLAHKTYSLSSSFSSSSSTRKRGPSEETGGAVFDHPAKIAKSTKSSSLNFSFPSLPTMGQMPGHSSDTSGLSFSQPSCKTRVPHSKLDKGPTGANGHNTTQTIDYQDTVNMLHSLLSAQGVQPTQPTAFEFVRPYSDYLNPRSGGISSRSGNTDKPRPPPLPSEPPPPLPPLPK

`CC1CCCOc2cc(ccc2F)-c2cc(ncc2F)Nc2cc(CS(C)(=N)=O)cc(n2)O1` (single isomer, unassigned) [Example 14, 3,20-difluoro-14-methyl-10-[(S-methylsulfonimidoyl)methyl]-13,18-dioxa-5,7,24-triazatetracyclo[17.3.1.1^2,6.1^8,12]pentacosa-1(23),2(25),3,5,8(24),9,11,19,21-nonaene]: the IC50 with A2780 cells amounted to 23 nM; against CDK2/CycE it was 1510 nM; on CDK9/CycT1, 3 nM. Moreover, the “Selectivity high ATP CDK9 over high ATP CDK2: IC50 (high ATP CDK2)/IC50 (high ATP CDK9)” value (“Selectivity high ATP CDK9” for short) on CDK9/CycT1 came out at 503.
For `CC1CCCCCOc2cc(ccc2F)-c2cc(ncc2F)Nc2cc(CS(C)(=N)=O)cc(n2)O1` (single isomer, unassigned) [Example 27, 3,22-difluoro-14-methyl-10-[(S-methylsulfonimidoyl)methyl]-13,20-dioxa-5,7,26-triazatetracyclo[19.3.1.1^2,6.1^8,12]heptacosa-1(25),2(27),3,5,8(26),9,11,21,23-nonaene], in that order: 102 nM, 2720 nM, 5 nM and 544.
With `CC1CCCOc2cc(ccc2F)-c2cc(ncc2F)Nc2cc(CS(C)(=N)=O)cc(n2)O1` (single isomer, unassigned) [Example 15, 3,20-difluoro-14-methyl-10-[(S-methylsulfonimidoyl)methyl]-13,18-dioxa-5,7,24-triazatetracyclo[17.3.1.1^2,6.1^8,12]pentacosa-1(23),2(25),3,5,8(24),9,11,19,21-nonaene], the values for the IC50 in the test on A2780 cells, on CDK2/CycE and on CDK9/CycT1 were 16 nM, 1620 nM and 3 nM, respectively. Besides, the “Selectivity high ATP CDK9” value on CDK9/CycT1 is listed as 540.
On to `CC1CCCCCOc2cc(ccc2F)-c2cc(ncc2F)Nc2cc(CS(C)(=O)=O)cc(n2)O1` (single isomer, unassigned) [Example 32, 3,22-difluoro-14-methyl-10-[(methylsulfonyl)methyl]-13,20-dioxa-5,7,26-triazatetracyclo[19.3.1.1^2,6.1^8,12]hexacosa-1 (25),2(27),3,5,8(26),9,11,21,23-nonaene], for which the IC50 in the test on A2780 cells was found to be 146 nM; at CDK2/CycE it was 4980 nM; on CDK9/CycT1, 18 nM. At CDK9/CycT1, the “Selectivity high ATP CDK9” value stood at 277.
Take `CC1CCCCCOc2cc(ccc2F)-c2cc(ncc2F)Nc2cc(CS(C)(=O)=O)cc(n2)O1` (single isomer, unassigned) [Example 31, 3,22-difluoro-14-methyl-10-[(methylsulfonyl)methyl]-13,20-dioxa-5,7,26-triazatetracyclo[19.3.1.1^2,6.1^8,12]hexacosa-1 (25),2(27),3,5,8(26),9,11,21,23-nonaene]: the IC50 with A2780 cells (Homo sapiens, A2780, 72 h) was 121 nM; on CDK2/CycE, more than 20000 nM; against CDK9/CycT1 it was 16 nM. Also, the “Selectivity high ATP CDK9” value on CDK9/CycT1 is given as 1250.
Consider `CC1CCCCOc2cc(ccc2F)-c2cc(ncc2F)Nc2cc(CS(C)(=O)=O)cc(n2)O1` (single isomer, unassigned) [Example 29, 3,21-difluoro-14-methyl-10-[(methylsulfonyl)methyl]-13,19-dioxa-5,7,25-triazatetracyclo[18.3.1.1^2,6.1^8,12]hexacosa-1(24),2(26),3,5,8(25),9,11,20,22-nonaene], for which the IC50 in the test on A2780 cells was determined as 25 nM; on CDK2/CycE it was 691 nM; at CDK9/CycT1, 4 nM. Also, the “Selectivity high ATP CDK9” value on CDK9/CycT1 is listed as 173.
Take `CC1CCCCCOc2cc(ccc2F)-c2cc(ncc2F)Nc2cc(CS(C)(=N)=O)cc(n2)O1` (single isomer, unassigned) [Example 26, 3,22-difluoro-14-methyl-10-[(S-methylsulfonimidoyl)methyl]-13,20-dioxa-5,7,26-triazatetracyclo[19.3.1.1^2,6.1^8,12]heptacosa-1(25),2(27),3,5,8(26),9,11,21,23-nonaene]: the IC50 was found to be 53 nM in the test with A2780 cells (Homo sapiens, A2780, 72 h); 13000 nM against CDK2/CycE; 4 nM on CDK9/CycT1. Also, the “Selectivity high ATP CDK9” value at CDK9/CycT1 is reported as 3250.
